Where a name gives a salt, the structure may show the parent alone.
Legend:
Assay type in all cases: cell-based
CEM cells = experiment: Toxicity to mock-infected CEM cells (CC50); conditions: Table III; toxicity to CEM cells; read-out: CC50 CEN
Experimental: (§1) Then 100 μL of the infected cell suspension was transferred to microtiter plate wells and mixed with 100 μL of the appropriate dilutions of the test compounds.
CC50 CEM: CC50 in μM for toxicity to CEM cells.
CC50 CEM: CC50 μM for toxicity to CEM cells

HIV-1 = experiment: Inhibition of HIV-1 giant cell formation in CEM cells; conditions: Table III; EC50 for inhibition of HIV1 in CEM cells; read-out: HIV1 CBM
Experimental: as §1
HIV 1 CEM: EC50 in μM for inhibition of HIV1 in CEM cells

HIV-2 = experiment: Inhibition of HIV-2 giant cell formation in CEM cells; conditions: Table III; EC50 for inhibition of HIV-2 in CEM cells; read-out: HIV2 CBM
Experimental: as §1
HIV1 CEM: EC50 in μM for inhibition of […] in CEM cells.
HIV2 CEM: EC50 in μM for inhibition of HIV-2 in CEM cells

`CC[C@H](C)[C@H](NP(=O)(OC[C@@H]1C=C[C@H](n2cnc3c(NC4CC4)nc(N)nc32)C1)Oc1ccccc1)C(=O)OC` (stereo partly drawn) [Compound 1751, (1S,4R)-4-(2-amino-6-cyclpropylamino-9H purin-9-yl)-2-cyclopentene-1-methanol O-(phenylmethoxy-L-isoleucinyl phosphate)] was tested, and the CC50 (CEM cells) was 24.2 µM, the EC50 (HIV-1) was 7 µM and the EC50 (HIV-2) was 5.33 µM.

For `COC(=O)C(C)(C)NP(=O)(OC[C@@H]1C=C[C@H](n2cnc3c(NC4CC4)nc(N)nc32)C1)Oc1ccccc1` (stereo partly drawn) [Compound 1584, (1S,4R)-4-(2-amino-6-cyclopropylamino-9H-purin-9-yl)-2-cyclopentene-1-methanol O-[phenyl-(methoxy-α,adimethylglycinyl)]-phosphate], the CC50 (CEM cells) was 8.91 µM, the EC50 (HIV-1) was 0.067 µM and the EC50 (HIV-2) was 0.06 µM.

For `C[C@H](NP(=O)(OC[C@@H]1C=C[C@H](n2cnc3c(NC4CC4)nc(N)nc32)C1)Oc1ccccc1)C(=O)OC1CCCCCC1` (stereo partly drawn) [Compound 1752, (1S,4R)-4-(2-amino-6-cyclopropylamino-9-H-purin-9-yl)2-cyclopentene-1-methanol O-(phenyl (cycloheptanyl)oxyalaninyl phosphate)], the CC50 (CEM cells) was 6.32 µM, the EC50 (HIV-1) was 1.3 µM and the EC50 (HIV-2) was 1.05 µM.

`COC(=O)C[C@H](NP(=O)(OC[C@@H]1C=C[C@H](n2cnc3c(NC4CC4)nc(N)nc32)C1)Oc1ccccc1)C(=O)OC` (stereo partly drawn) [Compound 1589, (1S,4R)-4-(2-amino-6-cyclopropylamin9H-purin-9-yl)-2-cyclopentene-1-methanol O-[phenyl-(L-asparic acid dimethyl ester)]-phosphate] was tested, and the CC50 (CEM cells) was 44.2 µM, the EC50 (HIV-1) was 1.42 µM and the EC50 (HIV-2) was 1.9 µM.

In the case of `COC(=O)CC[C@H](NP(=O)(OC[C@@H]1C=C[C@H](n2cnc3c(NC4CC4)nc(N)nc32)C1)Oc1ccccc1)C(=O)OC` (stereo partly drawn) [Compound 1749, (1S,4R)-4-(2-amino6-cyclopropylamino-9H-purin-9-yl)-2-cyclopentene-1-methanol O-(phenyldimethoxy-L-glutamyl phosphate)], the CC50 (CEM cells) is reported as 36.9 µM, the EC50 (HIV-1) is reported as 3.5 µM and the EC50 (HIV-2) is reported as 5.33 µM.

For `COC(=O)[C@@H](C)NP(=O)(OC[C@@H]1C=C[C@H](n2cnc3c(NC4CC4)nc(N)nc32)C1)Oc1ccccc1` (stereo partly drawn) [Compound 1583, (1 S,4R)-4-(2-amino-6-cyclopropyiamino-9H-purin-9-yl)-2-cyclopentene-1-methanol O-[phenyl-(methoxy-D-alaninyl)]-phosphate], the CC50 (CEM cells) was 64.3 µM, the EC50 (HIV-1) was 1.38 µM and the EC50 (HIV-2) was 4.5 µM.

For `COC(=O)[C@H](Cc1c[nH]c2ccccc12)NP(=O)(OC[C@@H]1C=C[C@H](n2cnc3c(NC4CC4)nc(N)nc32)C1)Oc1ccccc1` (stereo partly drawn) [Compound 1750, (1S,4R)-4-(2-amino-6-cyclopropylamino-9H-purin-9-yl)-2cyclopentene-1-methanol O-(phenylmethoxy-L-tryptophanyl phosphate)], the CC50 (CEM cells) was 18.3 µM, the EC50 (HIV-1) was 3 µM and the EC50 (HIV-2) was 3.67 µM.

Compound `C[C@H](NP(=O)(OC[C@@H]1C=C[C@H](n2cnc3c(NC4CC4)nc(N)nc32)C1)Oc1ccccc1)C(=O)OCc1ccccc1` (stereo partly drawn) [Compound 1582, (1S,4R)-4-(2-amino-6-cyclopropylamino-9H-purin-9-yl)-2-cyclopentene-1-methanol O-[phenyl-(enzoxy-L-alaninyl)]-phosphate] has a CC50 (CEM cells) of 12.5 µM, an EC50 (HIV-1) of 0.083 µM and an EC50 (HIV-2) of 0.11 µM.

`COC(=O)[C@H](Cc1ccccc1)NP(=O)(OC[C@@H]1C=C[C@H](n2cnc3c(NC4CC4)nc(N)nc32)C1)Oc1ccccc1` (stereo partly drawn) [Compound 1585, (1,S,4R)-4-(2-amino-6-cyclopropylamino-9H-purin-9-yl)-2-cyclopentee-1-methain O-[phenyl-(methoxy-L-phenylalaninyl)]-phosphate] showed a CC50 (CEM cells) of 36.1 µM, an EC50 (HIV-1) of 1.42 µM and an EC50 (HIV-2) of 2.13 µM.

`C[C@H](NP(=O)(O)OC[C@@H]1C=C[C@H](n2cnc3c(NC4CC4)nc(N)nc32)C1)C(=O)O` [Compound 1540, (1S,4R)-4-(2-amino-6-cyclopropylamino-9H-purin-9-yl)-2-cyclopentene-1-methanol O-(L-alaninyl)-phosphate diammonium salt] was tested, and the CC50 (CEM cells) was 115 µM, the EC50 (HIV-1) was 1.2 µM and the EC50 (HIV-2) was 0.95 µM.
